Source: a melting point compilation (Tetko et al.; mined from patent text by program, amines drawn as free bases though some values may be those of a salt)

First: CC1(C)Oc2ccc(S(=O)(=O)c3ccccc3)cc2[C@@H](N2CCCC2=O)[C@@H]1O (relative stereo)
Second: Cc1ccc2[nH]c(-c3ccc(S(C)(=O)=O)cc3)c(-c3ccccc3)c2c1
The melting point of the first is lower: 200 to 201 °C for the first, 245 to 247 °C for the second.

Compared with `CCOC(=O)c1cc2c(nc(C)n2C)c2c1CCC(OC)(c1ccccc1)O2` (centres undefined), `COC(=O)CCn1c(C(=O)OCc2ccccc2)cc2c(C)c(C)c(OC)cc21` is higher in melting point: 176 to 178 °C for the first, 198 °C for the second.

Compared with `NC(=O)N(O)CCNC(=O)c1ccccc1Oc1ccccc1`, `Nc1ccc(Oc2ccccc2C(=O)Oc2ccccc2)cc1` is lower in melting point: 182 to 185 °C for the first, 102 °C for the second.

First: COc1ccc(S(=O)(=O)c2ccnc(C)c2C)cc1
Second: COc1ccc(CSc2cnccc2C#N)cc1
The melting point of the first is higher: 84 to 85 °C for the first, 80 to 81 °C for the second.

First: Cn1c2c(c3ccccc31)CCN1C(=O)CCC21C (centres undefined)
Second: Cn1c([N+](=O)[O-])cnc1-c1nc2ccccc2c(=O)[nH]1
The melting point of the first is lower: 132 to 134 °C for the first, 256 to 260 °C for the second.

Compared with `COc1nc(C(Cl)(Cl)Cl)c(Cl)c(OC)c1Cl`, `COC(=O)Cn1nnnc1-c1ccc(Cl)cc1` is higher in melting point: 67 to 69 °C for the first, 156 to 158 °C for the second.

First: O=C(NCc1ccc(Cl)cc1)c1cnc2ccc(I)cc2c1O
Second: CCOC(=O)NN(C)C(=O)Nc1ccc(OCc2ccc(Cl)cc2)cc1F
The melting point of the first is higher: 297 to 299 °C for the first, 108 °C for the second.

First: FC(F)c1cccc(C#CCCn2nc3ccccc3n2)n1
Second: CSCCCn1nc(-c2cccc(C(F)(F)F)c2F)c(=O)c2ccccc21
The melting point of the first is higher: 102 to 103 °C for the first, 80 to 83 °C for the second.

Compared with `Cc1nc(N)c2nc(C)n(CCOCCN)c2c1C`, `CCCc1nc2c(N)nc(C)c(C)c2n1CCCCS(C)(=O)=O` is higher in melting point: 130 to 133 °C for the first, 152 to 153 °C for the second.

First: CCCCCCCCCCCCCCCCCCOc1cn(CCC)c(CO)cc1=O
Second: CCCCCCCCCCCCCCOc1ccc(CC(=O)Nc2ccccc2CBr)cc1
The melting point of the first is higher: 120 to 121 °C for the first, 100 to 103 °C for the second.

First: COc1cccc2c1OC(CO)C2=O (centres undefined)
Second: Cc1c(C(=O)O)cccc1-c1cccs1
The melting point of the first is higher: 103 to 104 °C for the first, 91.5 to 93 °C for the second.

First: COc1cccc2c1CC1CC(CCN3CCC(c4c[nH]c5ccccc45)CC3)CN(C)C1C2 (centres undefined)
Second: O=C(c1ccc(F)cc1)C1CCN(CCCn2c(=O)[nH]c3ccccc32)CC1
The melting point of the first is higher: 215 to 217 °C for the first, 164 °C for the second.

First: CC(=O)C(=Cc1ccc(S(C)(=O)=O)c(Cl)c1)C(C)=O
Second: CS(=O)(=O)Nc1ccc(C(=O)CC(=O)C2CC2)c(Cl)c1
The melting point of the first is higher: 140 to 142 °C for the first, 120 to 122 °C for the second.

Compared with `O=C(CCNc1c(C(=O)O)[nH]c2cc(Cl)ccc12)c1cccc(F)c1`, `N#Cc1ccc(Cn2c(=O)[nH]c3cc(Cl)cc(Cl)c3c2=O)cc1` is higher in melting point: 258 to 260 °C for the first, 317 to 320 °C for the second.

Compared with `CC(C)(NC=O)c1ccc(I)cc1`, `CC(=O)Oc1ccc2cccc(O)c2n1` is higher in melting point: 121 to 125 °C for the first, 240 to 241 °C for the second.

First: CC(C)(C)OC(=O)Nc1ccc(Cl)c(C(F)(F)F)c1
Second: C=CC1=C(C(=O)O)C(C(F)(F)F)Oc2ccc(Cl)cc21 (centres undefined)
The melting point of the first is lower: 90 °C for the first, 143 to 145 °C for the second.

First: O=C(NC1CCCN(Cc2ccccc2)C1)c1ccc2[nH]ncc2c1 (centres undefined)
Second: c1ccc(Cn2c3ccccc3c3cc(-c4nc(C5CC5)no4)sc32)cc1
The melting point of the first is higher: 203 to 204 °C for the first, 140 to 141 °C for the second.

Compared with `COc1ccc(Cn2[nH]c(N)cc2=O)cc1`, `CNC(=O)c1cccc(NC(=O)CCc2ccc(OC)cc2)c1` is lower in melting point: 161 °C for the first, 151 to 152 °C for the second.

First: O=C1Cn2ccnc2-c2c(Br)cccc2N1
Second: O=C1c2cccc(Br)c2CN1Cc1cccc(C(F)(F)F)c1
The melting point of the first is higher: 234 to 235 °C for the first, 119 to 120 °C for the second.

First: COc1ccc(C2CC3(C)C(CC45OCCOC43OCCO5)C3CC(C)C4(O)CCCCC4C23)cc1 (centres undefined)
Second: CC1CC2C3=C(C(O)CC2(C)C1C(=O)CO)C1(C)C=CC(=O)C=C1C(F)C3 (centres undefined)
The melting point of the first is lower: 168 to 169 °C for the first, 173 °C for the second.

Going from `O=C(N=c1sc2cc(OC(F)(F)F)ccc2n1CCN1CCN(c2ccccn2)CC1)C(F)(F)F` to `O=C(N[C@H]1CC[C@H](CCN2CCN(c3nccc4c3CCO4)CC2)CC1)c1ccc(C(F)(F)F)cc1`, the melting point rises from 132 °C to 227 °C.

Compared with `CCOC(=O)CCc1ccc(OCc2ccc(OCc3nc(-c4ccccc4)oc3C)cc2)cc1`, `CC(C)Oc1cc(COc2ccc(C(F)(F)F)cc2)cc(COc2cc(CCC(=O)O)n(-c3ccccc3)n2)c1` is lower in melting point: 105 to 106 °C for the first, 55 to 58 °C for the second.

Compared with `CCCC(=O)OCC(CO)CCn1cnc2cnc(N)nc21` (centres undefined), `C=CCc1cc(C(C)=O)c(O)cc1OCCCCC` is lower in melting point: 125 to 127 °C for the first, 54 °C for the second.

Compared with `CSc1ccc(-c2nn(CC=Cc3ccccc3)c(=O)cc2-c2ccc(Cl)cc2)cc1`, `O=C(N[C@H](Cc1ccc(C(F)(F)F)c(F)c1)[C@@H](O)c1ccc(F)cc1)c1ccc(F)c2ccccc12` (racemic) is higher in melting point: 109 to 110 °C for the first, 212 to 213 °C for the second.

Compared with `O=C(O)CC(Sc1nc2ccccc2s1)C(=O)O` (centres undefined), `O=C(O)CCC(=O)NCc1ccccc1` is lower in melting point: 165 to 168 °C for the first, 138 °C for the second.

Compared with `NS(=O)(=O)c1cc(C(F)(F)F)cc(C(F)(F)F)c1`, `O=c1[nH]c2nc(C(F)(F)F)cc(C(F)(F)F)c2cc1-c1ccncc1` is higher in melting point: 183 to 185 °C for the first, 250 to 270 °C for the second.

Compared with `COc1ccc(S(=O)(=O)C(CCCc2ccccc2)(CCCc2ccccc2)C(=O)NO)cc1`, `COc1ccc(S(=O)(=O)CC(CS(=O)(=O)c2ccc(OC)cc2)C(=O)NO)cc1` is higher in melting point: 118 to 120 °C for the first, 174 °C for the second.

First: OCc1ccc2c(c1)C1(c3ccccc3-2)c2ccccc2-c2ccc(CO)cc21
Second: CCc1ccc(Nc2nc3cc(NC(=O)c4ccccc4Nc4cccc(C(F)(F)F)c4)ccc3o2)cc1
The melting point of the first is higher: 254 to 255 °C for the first, 174 to 176 °C for the second.

Compared with `Nc1ncc(Cc2ccc3ccccc3c2)c(N)n1`, `O=C(C=Cc1ccc2ccccc2c1)c1cnc2sc3c(n12)CCCCC3` is lower in melting point: 231 to 233 °C for the first, 185 to 188 °C for the second.

First: Cc1cccc(C)c1NCc1nnc(S)n1C
Second: Cc1cc(OCc2ccccc2)c(C)cc1OCCCC(C)(C)C(=O)O
The melting point of the first is higher: 172 to 173 °C for the first, 104 to 106 °C for the second.

`CC(C)(C)c1cc(OCc2cccc(C#N)c2)cc(C(C)(C)C)c1O` and `CC(C)(C)OC(=O)NCc1cccc(Cn2ccc(OCc3ccc(F)cc3F)c(Br)c2=O)c1` cannot be ordered by melting point: 78 to 81 °C for the first, 80 to 84 °C for the second.

Compared with `CN1CCc2nc(C(=O)N[C@@H]3C[C@@H](C(=O)O)CC[C@H]3NC(=O)c3cc4cc(Cl)ccc4[nH]3)sc2C1`, `Cc1ccc2c(c1)C(O)=C(C(=O)Nc1cncc(Cl)n1)N(C)S2(=O)=O` is higher in melting point: 234 to 236 °C for the first, 296 to 298 °C for the second.

First: COC(=O)c1ccc2cc(CCc3cc4ccc(C(=O)OC)cc4o3)oc2c1
Second: COc1cccc([C@H]2O[C@H](CC(=O)Nc3ccc(CC(=O)O)cc3)C(=O)N(CC(C)(C)CO)c3ccc(Cl)cc32)c1OC
The melting point of the first is higher: 175 to 177 °C for the first, 142 to 144 °C for the second.

First: O=c1c2c(Cl)cccc2nc(CSc2ncnc3[nH]cnc23)n1-c1ccccc1F
Second: Cc1n[nH]c(C)c1-c1nn(C(C)c2oc3ccccc3c(=O)c2-c2cccc(F)c2)c2ncnc(N)c12 (centres undefined)
The melting point of the first is higher: 244 °C for the first, 240 to 243 °C for the second.

First: Cc1nc(NC(=O)Nc2ccc(N3CCN(C(=O)Nc4cc(OCCO)ccc4Cl)CC3)nc2)sc1C
Second: CS(=O)(=O)N1CCN([C@@H](CNC(=O)c2ccc(OCc3ccncc3)cc2)C(=O)NO)CC1
The melting point of the first is lower: 128 to 129 °C for the first, 213 °C for the second.

First: CSc1ccc2nccn2n1
Second: Clc1cc(-n2cncn2)ncn1
The melting point of the first is lower: 66 to 68 °C for the first, 93 to 97 °C for the second.

First: CCOC(=O)C1=NN(c2cccc(Cl)c2)C(c2ccccc2)CO1 (centres undefined)
Second: COc1ccc2ccccc2c1C1C(CC(=O)O)CC(=O)N1c1ccccc1 (centres undefined)
The melting point of the first is lower: 103 to 104 °C for the first, 198 to 203 °C for the second.

First: OC(CNc1ccccc1)c1cc(C(F)(F)F)nc2c(C(F)(F)F)cccc12 (centres undefined)
Second: CC(C)(C)OC(=O)NC(Cc1ccccc1)C(=O)NC1N=C(c2ccccc2)c2ccccc2NC1=O (mixture of isomers)
The melting point of the first is lower: 121 to 122 °C for the first, 143 to 153 °C for the second.

First: CCOC(=O)C(NC(=O)OC(C)(C)C)c1csc(N)n1 (centres undefined)
Second: CC(=O)C1(c2ccccc2)CCN(C(=O)OC(C)(C)C)CC1
The melting point of the first is higher: 143 to 144 °C for the first, 91 to 92 °C for the second.

First: CS(=O)(=O)OCCc1ccc(-c2cccnc2)cc1
Second: Cc1c(C(=O)c2ccc(F)cc2)cccc1[N+](=O)[O-]
The melting point of the first is higher: 66 to 68 °C for the first, 64 °C for the second.

First: CCc1cccc(-n2cnc(-c3cnc4[nH]cc(C(=O)N[C@@H](C)C(C)(C)C)c4n3)c2)c1
Second: CCCC(=O)N(Cc1cccc2c1S(=O)(=O)N=C2C1=C(O)C(C(C)(C)C)N(Cc2ccc(F)c(C)c2)C1=O)S(C)(=O)=O (centres undefined)
The melting point of the first is higher: 284 to 287 °C for the first, 226 °C for the second.

First: CC(C)CCC(C)(C#N)N=NC(C)(C#N)CCC(C)C (centres undefined)
Second: CCCC=Cc1c(C(C)C)nc(C(C)C)c(CO)c1-c1cccc(OC)c1
The melting point of the first is lower: 56 to 58 °C for the first, 71 to 75 °C for the second.

First: N=c1cc(NC(=S)Nc2ccccc2)nc2n1CCCS2
Second: COC(=O)NN=C(C)c1nc(-c2ccccc2)[nH]c1C
The melting point of the first is lower: 157 to 158 °C for the first, 201 to 202 °C for the second.

First: CC(=C1SC(=O)NC1=O)c1ccc(OCCOc2c(-c3ccc(F)c(F)c3)n(C)c3ccc(F)cc3c2=O)c(Cl)c1
Second: CC(=O)c1ccc(C(=C2CC(C)(C)CC(C)(C)C2)c2ccc(O)cc2)cc1
The melting point of the first is higher: 215 to 218 °C for the first, 195 to 196 °C for the second.

Compared with `CN1C2CCC1CN(c1ccc(Br)nn1)C2`, `CN1CCC(OC2c3ccccc3CCn3c2nc(-c2ccccc2)c3C=O)CC1` (centres undefined) is lower in melting point: 118 to 120 °C for the first, 70 °C for the second.

Compared with `Cc1cn([C@H]2CC(N=[N+]=[N-])[C@@H](COC(=O)C(C)(C)CC(=O)N[C@@H](Cc3ccccc3)[C@H](O)C(=O)N3CSC[C@H]3C(=O)NC(C)(C)C)O2)c(=O)[nH]c1=O` (some centres undefined), `CC1CC(=O)NN=C1c1ccc(NC(=O)C2CC2(C)C)cc1` (centres undefined) is higher in melting point: 83 to 84 °C for the first, 222 to 223 °C for the second.

First: CCc1cc(CO)nn1-c1ccc([N+](=O)[O-])cc1
Second: Cc1cc(Oc2cccc(C(F)(F)F)c2)nn1C(N)=O
The melting point of the first is higher: 151 to 152 °C for the first, 76 to 77 °C for the second.

First: CN(c1c(Cl)ccc2cc(C(N)=S)[nH]c12)S(=O)(=O)c1cccs1
Second: CC1(C)Cc2cc(C3=NNC(=O)C4CC34)ccc2NC1=O (centres undefined)
The melting point of the first is lower: 200 to 201 °C for the first, 275 to 277 °C for the second.

First: O=C(O)CCc1cc(F)cc(F)c1
Second: CCCCCc1cc(O)c2c3c(c(=O)oc2c1)SC(C)(C)C3
The melting point of the first is lower: 56 °C for the first, 203 to 206 °C for the second.

Work on `COc1ccc(C2CCN(C(=O)C(N)=O)CC2)cc1C=C1CCCC1` yielded a melting point of 116 to 117 °C.
